{"source": "patent US20100144652A1", "about": "“COMPOSITION COMPRISING A GLYCOLYTIC INHIBITOR AND A RING SYSTEM COMPRISING A SULPHAMATE GROUP FOR THE TREATMENT OF CANCER” (Sterix Limited, priority 2007, published 2010)", "key": {"[1]": {"settings": "cited from earlier work"}, "[2]": {"settings": "cited from earlier work", "remark": "listed apart in the source"}, "[3]": {"molecular_target": "T1, steroid sulphatase (Homo sapiens, UniProt P08842)", "T1 sequence (P08842 22-583)": "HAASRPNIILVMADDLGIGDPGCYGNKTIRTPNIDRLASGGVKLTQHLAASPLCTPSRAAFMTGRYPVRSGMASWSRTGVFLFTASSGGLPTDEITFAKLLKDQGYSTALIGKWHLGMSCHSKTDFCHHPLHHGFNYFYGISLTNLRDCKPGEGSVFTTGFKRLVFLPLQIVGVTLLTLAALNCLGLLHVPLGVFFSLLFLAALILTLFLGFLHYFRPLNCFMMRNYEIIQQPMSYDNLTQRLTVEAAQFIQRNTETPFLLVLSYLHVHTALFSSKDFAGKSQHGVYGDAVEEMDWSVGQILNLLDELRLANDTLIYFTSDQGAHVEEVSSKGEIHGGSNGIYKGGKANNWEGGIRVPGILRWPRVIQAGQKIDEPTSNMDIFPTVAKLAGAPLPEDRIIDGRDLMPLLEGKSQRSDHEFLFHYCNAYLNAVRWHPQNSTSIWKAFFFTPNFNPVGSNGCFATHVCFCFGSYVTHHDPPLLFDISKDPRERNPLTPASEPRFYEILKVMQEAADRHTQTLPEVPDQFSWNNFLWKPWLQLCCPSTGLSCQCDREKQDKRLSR", "settings": "compared with EMATE; cited from earlier work"}, "[4]": {"system": "LNCaP cells", "test": "Proliferation assay (Alamar blue, microtiter plate)", "type": "cell-based", "settings": "Homo sapiens; for inhibition at 8000 µM: 2DG alone 8 mM, read-out: inhibition of cell growth", "protocol": "(§1) MCF-7 and LNCaP cells were obtained from the American Tissue Culture Collection (ATCC). Cells were cultured in the following supplements, obtained from Sigma: RPMI 1640 with 10% foetal bovine serum, 1% L-glutamine, 1% MEM non-essential amino acids, 1% sodium bicarbonate solution, LNCaP cells also required 1% sodium pyruvate. Cells were maintained in an incubator at 37° C. under 5% CO2 and 95% air atmosphere.\n(§2) MCF-7 and LNCaP cells were seeded at 3000 cells/well or 5000 cells/well respectively, in 96 well plates. Compounds were added 4 hours after seeding of cells. […]\n(§3) An Innova co-48 CO2 humidified incubator (Newbrunswick Scientific, St. Albans, U.K.) was used to study the effects of 2DG and STX140 on cells under hypoxic conditions. Oxygen was maintained at 1%, CO2 5% and temperature at 37° C."}, "[5]": {"system": "MCF-7 cells", "test": "Proliferation assay (Alamar blue, microtiter plate)", "type": "cell-based", "settings": "Homo sapiens; for inhibition at 8000 µM / inhibition at 0.5 µM: MCF7, 72 h; for inhibition at 8000 µM: MCF-7, 2DG alone 8 mM, 72 h, read-out: inhibition of cell growth", "protocol": "as §1, §2, §3"}, "[6]": {"system": "LNCaP cells", "test": "Measurement of ATP (ATPlite assay)", "type": "cell-based", "settings": "2DG 8 mM, 72 h; for ATP levels: normoxia or hypoxia, STX140 0.1 μM-1 μM, vs untreated normoxic controls", "protocol": "as §3\n(§4) MCF-7 and LNCaP cells were seeded at 3000 cells/well or 5000 cells/well respectively, in 96 well plates. Compounds were added 4 hours following seeding of cells. The ATPlite assay procedure was carried out according to manufacturer's instructions (Perkin Elmer, Beaconsfield, U.K.) and ATP measured 72 hrs later using a FluoStar Optima Plate reader."}, "[7]": {"system": "MCF-7 cells", "test": "Measurement of ATP (ATPlite assay)", "type": "cell-based", "settings": "for ATP levels: MCF-7, 72 h, normoxia or hypoxia, 2DG 8 mM, STX140 0.1 μM-1 μM, vs untreated normoxic controls", "protocol": "as §3, §4"}, "[8]": {"system": "LNCaP cells", "test": "Cell morphology (microscopy)", "type": "cell-based", "settings": "STX140 0.5 μM, 2DG 8 mM, 96 h, normoxia", "source_text": "(§5) Cells were examined using a Zeiss inverted microscope fitted with a 20× and 40× Plan-Neofluor objective, and analysed through an Axiovision imaging system attached to the microscope."}, "[9]": {"system": "MCF-7 cells", "test": "Cell morphology (microscopy)", "type": "cell-based", "settings": "MCF-7, STX140 0.5 μM, 2DG 8 mM, 96 h, normoxia", "source_text": "as §5"}, "[10]": {"system": "MCF-7 tumours", "test": "In vivo tumour xenograft model, MCF-7 cell tumours", "settings": "athymic nude mice, STX140 5 mg/kg p.o. daily, 2DG 2 g/kg i.p. daily, 28 days, compared to control", "protocol": "Intact, ovariectomized, athymic, female MF-1 nude mice (nu-/nu-) were purchased from Harlan (Bicester, Oxon, UK) at 5 weeks of age (˜20-25 g in weight). All experiments were carried out under conditions that complied with institutional guidelines. Animals were kept in a 12-hour light/12-hour dark cycle and given food and water ad libitum. Monolayers of MCF-7 cells were removed by trypsinization, and the resultant cell suspension was centrifuged for 5 min. at 1,000×g and then resuspended in ice-cold matrigel (BD Biosciences). Five million MCF-7 cells were injected s.c. into the right flank of the animals. The tumours were allowed to grow for 2 weeks, when the tumours reached 100-150 mm^3 in volume, mice were randomly divided into four treatment groups: 1) vehicle (10% tetrahydrofuran; 90% propylene glycol, […] oral)+saline i.p. 200 ml; 2) vehicle+2DG (2 g/kg) i.p. 200 ml; 3) STX140 (5 mg/kg) […] oral+saline i.p. 200 ml; 4) STX140 (5 mg/kg) […] oral+2DG (2 g/kg) i.p. 200 ml. All treatments were administered daily for 4 weeks, […]. Throughout the study, mice were weighed and tumour measurements were taken on a weekly basis. Tumour volumes were calculated using the formula: length×width^2/2. At the end of the study, tumours were collected for immunohistochemical analysis."}, "[11]": {"system": "von Willebrand's factor", "test": "von Willebrand's factor immunohistochemistry of xenograft sections (vessel density)", "type": "in vivo, mice", "settings": "sections of MCF-7 xenografts, STX140 5 mg/kg p.o. daily, 2DG 2 g/kg i.p. daily"}, "[12]": {"system": "r^□ cells which have lost their mitochondrial DNA", "settings": "Liu et al., 2001; cited from earlier work"}, "[13]": {"system": "MCF-7 cells", "settings": "MCF-7, previously calculated by Day and Newman; read-out: IC50, inhibition of proliferation; cited from earlier work"}, "[14]": {"system": "LNCaP cells", "settings": "previously calculated by Day and Newman, read-out: IC50, inhibition of proliferation; cited from earlier work"}, "[15]": {"system": "breast cancer cells", "settings": "Raobaikady et al., 2003; cited from earlier work"}, "[16]": {"system": "HUVEC cells", "settings": "Newman et al., 2004; cited from earlier work"}, "[17]": {"system": "vessel formation", "settings": "novel co-culture model system, Newman et al., 2004; cited from earlier work"}, "[18]": {"molecular_target": "p-glycoprotein (Homo sapiens, UniProt P08183)", "sequence (P08183 whole entry)": "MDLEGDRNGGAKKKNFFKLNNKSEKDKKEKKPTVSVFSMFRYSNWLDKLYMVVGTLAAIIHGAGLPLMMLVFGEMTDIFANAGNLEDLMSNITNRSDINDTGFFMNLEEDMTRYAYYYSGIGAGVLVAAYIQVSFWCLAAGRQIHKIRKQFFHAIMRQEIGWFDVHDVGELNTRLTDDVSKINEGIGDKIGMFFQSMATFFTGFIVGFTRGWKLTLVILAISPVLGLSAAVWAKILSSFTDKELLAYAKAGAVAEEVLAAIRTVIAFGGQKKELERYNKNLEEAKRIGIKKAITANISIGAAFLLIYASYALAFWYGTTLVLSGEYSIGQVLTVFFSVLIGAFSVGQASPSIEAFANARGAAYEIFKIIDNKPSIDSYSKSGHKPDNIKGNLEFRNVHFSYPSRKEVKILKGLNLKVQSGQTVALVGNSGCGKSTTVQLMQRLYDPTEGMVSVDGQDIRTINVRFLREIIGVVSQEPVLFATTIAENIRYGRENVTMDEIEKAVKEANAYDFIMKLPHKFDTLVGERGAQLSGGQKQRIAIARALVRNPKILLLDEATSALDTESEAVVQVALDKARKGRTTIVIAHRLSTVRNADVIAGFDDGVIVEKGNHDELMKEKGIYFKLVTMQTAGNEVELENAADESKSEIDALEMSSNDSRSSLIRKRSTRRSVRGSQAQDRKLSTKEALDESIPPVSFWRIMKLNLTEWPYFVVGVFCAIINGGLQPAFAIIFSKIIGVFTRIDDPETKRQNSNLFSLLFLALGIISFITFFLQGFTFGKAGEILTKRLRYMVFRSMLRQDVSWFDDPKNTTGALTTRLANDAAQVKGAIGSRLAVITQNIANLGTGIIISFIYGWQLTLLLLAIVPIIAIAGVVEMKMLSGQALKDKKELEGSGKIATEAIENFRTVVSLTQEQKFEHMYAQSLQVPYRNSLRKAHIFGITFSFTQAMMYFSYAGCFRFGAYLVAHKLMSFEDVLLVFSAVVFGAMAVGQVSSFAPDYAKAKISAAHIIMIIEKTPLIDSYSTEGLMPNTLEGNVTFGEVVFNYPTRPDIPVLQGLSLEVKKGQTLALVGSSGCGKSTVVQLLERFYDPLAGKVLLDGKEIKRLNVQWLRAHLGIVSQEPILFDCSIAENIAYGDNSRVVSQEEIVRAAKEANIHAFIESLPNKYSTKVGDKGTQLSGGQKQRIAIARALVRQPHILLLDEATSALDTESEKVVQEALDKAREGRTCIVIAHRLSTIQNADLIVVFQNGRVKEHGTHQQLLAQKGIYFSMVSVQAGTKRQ", "settings": "Suzuki, 2003; cited from earlier work"}}, "note": "pIC50: −log10 of the molar value. Entries after “also recorded” stand apart in the source; their conditions may differ. Where two headings read alike, the source gives them in different places."}
{"smiles": "COc1cc2c(cc1O)CC[C@@H]1[C@@H]2CC[C@]2(C)[C@@H](O)CC[C@@H]12", "note": "[2-MeOE2, 2-methoxyoestradiol, reference compound]", "values": [{"measurement": "oral bioavailability", "setting": "[1]; in vivo, po", "result": "very poor oral bioavailability"}]}
{"smiles": "COc1cc2c(cc1OS(N)(=O)=O)CC[C@@H]1[C@@H]2CC[C@]2(C)C(=O)CC[C@@H]12", "note": "[2-methoxyoestrone-3-O-sulphamate]", "values": [{"measurement": "oestrogenicity", "setting": "[2]; rat, in vivo", "result": "devoid of oestrogenicity"}, {"measurement": "potency as steroid sulphatase inhibitor", "setting": "[3]", "result": "equipotent with EMATE"}]}
{"smiles": "O=CC[C@@H](O)[C@H](O)[C@H](O)CO", "note": "[2DG, 2-deoxy-D-glucose]", "values": [{"measurement": "inhibition at 8000 µM", "setting": "[4]; 72 h, hypoxic, 72 h", "result": 75, "unit": "%"}, {"measurement": "inhibition at 8000 µM", "setting": "[4]; 72 h, normoxic, 72 h", "result": 50, "unit": "%"}, {"measurement": "pIC50", "setting": "[4]; 120 h, 5 day period, normoxic conditions, read-out: IC50, inhibition of proliferation", "result": 2.17}, {"measurement": "inhibition at 8000 µM", "setting": "[5]; hypoxic", "result": 70, "unit": "%"}, {"measurement": "inhibition at 8000 µM", "setting": "[5]; normoxic", "result": 50, "unit": "%"}, {"measurement": "pIC50", "setting": "[5]; MCF7, 120 h, MCF-7, 5 day period, normoxic conditions, read-out: IC50, inhibition of proliferation", "result": 2.09}, {"measurement": "ATP per living cell", "setting": "[6]; vs untreated controls", "result": "significantly decreases ATP"}, {"measurement": "ATP levels", "setting": "[6]", "result": "decreases ATP"}, {"measurement": "ATP per living cell", "setting": "[7]; MCF-7, 2DG 8 mM, 72 h, vs untreated controls", "result": "significantly decreases ATP"}, {"measurement": "ATP levels", "setting": "[7]", "result": "decreases ATP"}, {"measurement": "cell morphology", "setting": "[8]", "result": "cells appear to swell up"}, {"measurement": "cell morphology", "setting": "[9]", "result": "cells appear to swell up"}, {"measurement": "growth of MCF-7 tumours", "setting": "[10]", "result": "did not significantly inhibit tumour growth"}, {"measurement": "von Willebrand's factor staining for endothelial cells (blood vessels)", "setting": "[11]", "result": "no significant effect"}, {"measurement": "sensitivity of cells lacking mitochondrial DNA relative to wt cells", "setting": "[12]", "result": 10, "unit": "times"}]}
{"smiles": "C[C@]12CC[C@@H]3c4ccc(OS(N)(=O)=O)cc4CC[C@H]3[C@@H]1CCC2=O", "note": "[EMATE, oestrone-3-O-sulphamate]", "values": [{"measurement": "oral uterotrophic activity relative to estradiol", "setting": "[2]; rats, oral", "result": 100, "unit": "times"}]}
{"smiles": "COc1cc2c(cc1OS(N)(=O)=O)CCC1C2CC[C@]2(C)C(OS(N)(=O)=O)CCC12", "note": "(stereo partly shown) [STX140, 2-Methoxyestradiol-3,17-O,O-bis-sulfamate]", "values": [{"measurement": "pIC50", "setting": "[4]; 72 h, read-out: IC50, inhibition of proliferation, LNCaP, hypoxic, 72 h", "result": 6.50}, {"measurement": "pIC50", "setting": "[4]; 72 h, read-out: IC50, inhibition of proliferation, LNCaP, normoxic, 72 h", "result": 6.53}, {"measurement": "inhibition at 0.5 µM", "setting": "[4]; 72 h, read-out: inhibition of cell proliferation", "result": 65, "unit": "%"}, {"measurement": "inhibition at 0.5 µM", "setting": "[5]; read-out: inhibition of cell proliferation, MCF-7, STX140 0.5 μM, hypoxia, 72 h, vs normoxic untreated controls", "result": 48, "unit": "%"}, {"measurement": "inhibition at 0.5 µM", "setting": "[5]; read-out: inhibition of cell proliferation, MCF-7, STX140 0.5 μM, normoxia, 72 h, vs normoxic untreated controls", "result": 45, "unit": "%"}, {"measurement": "ATP levels", "setting": "[6]", "result": "drops significantly"}, {"measurement": "ATP levels", "setting": "[7]", "result": "drops significantly"}, {"measurement": "cell morphology", "setting": "[8]", "result": "shrivelled appearance"}, {"measurement": "cell morphology", "setting": "[9]", "result": "shrivelled appearance"}, {"measurement": "growth of MCF-7 tumours", "setting": "[10]; 5 mg/kg", "result": "significantly inhibited"}, {"measurement": "von Willebrand's factor staining for endothelial cells (blood vessels)", "setting": "[11]; 5 mg/kg", "result": "decrease in blood vessels; also recorded: significant reduction"}, {"measurement": "pIC50", "setting": "[13]", "result": 6.60}, {"measurement": "pIC50", "setting": "[14]", "result": 6.59}, {"measurement": "potency as inhibitor of breast cancer cells compared to 2-MeOE2", "setting": "[15]", "result": 6, "unit": "times"}, {"measurement": "inhibition of proliferation of HUVEC cells compared to 2-MeOE2", "setting": "[16]", "result": 60, "unit": "fold"}, {"measurement": "activity as inhibitor of vessel formation compared to 2-MeOE2", "setting": "[17]", "result": "10-13 times"}, {"measurement": "substrate for p-glycoprotein", "setting": "[18]", "result": "not a substrate for p-glycoprotein"}, {"measurement": "oral bioavailability", "setting": "[1]; literature (Ireson 2004)", "result": "orally bioavailable"}]}
